Test results from a compilation of properties of binary mixtures (doi:10.1039/c5cp04050g).

Test: xn = mol fraction of the nth substance listed
Details: 100 kPa

CCCC[n+]1ccn(C)c1.[Cl-] + NCCO
viscosity [mPa·s]
Details | 293 K | 298 K | 303 K | 303.1 K | 313.1 K | 323.1 K | 333.1 K | 333.2 K | 343.2 K
x2 = 0 | – | 19 | – | 15.2 | 9.93 | 6.88 | – | 5.03 | 3.69
x2 = 0.5 | – | 134 | – | – | – | 36.7 | – | – | 17.9
x2 = 0.677 | – | 47.4 | – | – | – | 16.6 | – | 12 | 9.1
x2 = 0.8 | 36.2 | 28.1 | 22.4 | – | 14.9 | 10.5 | 7.41 | – | 5.58
